Measured values: patent US7666639B2, “Plant deoxyribonucleoside kinase enzymes and their use” (priority 2002, dated 2010)

Key:
[1] = test system: tomato dNK enzyme (TOM-dCK/dGK); assay: Deoxyribonucleoside kinase activity in extract of KY895 transformed with pGEX-2T-TOM-dCK/dGK; assay type: biochemical, Lycopersicum esculentum; settings: for ability to phosphorylate the deoxyribonucleoside (in words): pGEX-2T-TOM-dCK/dGK
Protocol: (§1) Transformed KY895 strains were grown to an OD600 nm of 0.5-0.6 in LB/Ampicillin (100 μg/ml) medium at 37° C., and protein expression was induced by addition of 100 μM IPTG. The cells were further grown for 4 hours at 25° C. and subsequently harvested by centrifugation.
(§2) Pellets were stored at −80° C. until activity testing. Pellets were submitted to brief sonification in extraction buffer (50 mM Tris/HCl pH 7.5, 1 mM DTT, 10% (v/v) glycerol, 1% (v/v) Triton X-100, protease inhibitor cocktail (Complete™ from Roche Diagnostics).
(§3) Deoxyribonucleoside kinase activities were determined in the KY895 extracts by initial velocity measurements based on four time samples by the DE-81 filter paper assay using tritium-labelled nucleoside substrates. 4 to 20 μg extracts were used in the assays.
(§4) The four natural deoxyribonucleosides were tested at a fixed concentration of 100 μM. The highest specific activity in each extract was set to 100%.

[2] = test system: N-terminally deleted tomato dNK enzyme (TOM-ΔNdCK/dGK); assay: Deoxyribonucleoside kinase activity in extract of KY895 transformed with pGEX-2T-TOM-ΔNdCK/dGK; assay type: biochemical, Lycopersicum esculentum; settings: for ability to phosphorylate the deoxyribonucleoside (in words): pGEX-2T-TOM-ΔNdCK/dGK
Protocol: (§5) The E. coli strain KY895 (F^−, tdk-1, ilv) [Knecht W, Munch-Petersen B and Piskur J: Identification of residues involved in the specificity and regulation of the highly efficient multisubstrate deoxyribonucleoside kinase from Drosophila melanogaster; J. Mol. Biol. 2000 301 827-837] was transformed by various expression plasmids using standard techniques. Transformed KY895 strains were grown to an OD600 nm of 0.5-0.6 in LB/Ampicillin (100 μg/ml) medium at 37° C., and protein expression was induced by addition of 100 μM IPTG. The cells were further grown for 4 hours at 25° C. and subsequently harvested by centrifugation.
as §2
(§6) Deoxyribonucleoside kinase activities were determined in the KY895 extracts by initial velocity measurements based on four time samples by the DE-81 filter paper assay using tritium-labelled nucleoside substrates. 4 to 20 μg extracts were used in the assays. The assay was done as described by Munch-Petersen et al. [Munch-Petersen, B., Knecht, W, Lenz, C., Sondergaard, L. & Piskur, J: Functional expression of a multisubstrate deoxyribonucleoside kinase from Drosophila melanogaster and its C-terminal deletion mutants; J. Biol. Chem. 2000 275 6673-6679].
(§7) The protein concentration was determined according to Bradford with BSA as standard protein [Bradford M M: A rapid and sensitive method for the quantitation of microgram quantities of protein utilizing the principle of protein-dye binding; Anal. Biochem. 1976 72 248-254]. SDS-PAGE was done according to the procedure of Laemmli [Laemmli U K: Cleavage of structural proteins during the assembly of the head of bacteriophage T4; Nature 1970 227 680-685], and proteins were visualized by Coomassie staining to verify recombinant protein expression.
as §4

[3] = test system: C-terminally deleted tomato dNK enzyme (TOM-dCK/dGKΔC); assay: Deoxyribonucleoside kinase activity in extract of KY895 transformed with pGEX-2T-TOM-dCK/dGKΔC; assay type: biochemical, Lycopersicum esculentum; settings: for Deoxyribonucleoside kinase activity (relative): highest specific activity in extract = 100%
Protocol: as §5, §2, §6, §7, §4

[4] = test system: Arabidopsis thaliana dNK enzyme (AT-dCK/dGK); assay: Deoxyribonucleoside kinase activity in extract of KY895 transformed with pGEX-2T-AT-dCK/dGK; assay type: biochemical; settings: for ability to phosphorylate the deoxyribonucleoside (in words): pGEX-2T-AT-dCK/dGK
Protocol: as §1, §2, §3, §4

[5] = extract of pGEX-2T-TOM-dCK/dGKΔC transformant, substrate 100 μM

specific activity corresponding to 100% ([1]; extract of pGEX-2T-TOM-dCK/dGK transformant, substrate 100 μM)	Deoxyribonucleoside kinase activity (relative) ([1]; extract of pGEX-2T-TOM-dCK/dGK transformant, substrate 100 μM, highest specific activity in extract = 100%)	ability to phosphorylate the deoxyribonucleoside (in words) [1]	specific activity corresponding to 100% ([2]; extract of pGEX-2T-TOM-ΔNdCK/dGK transformant, substrate 100 μM)	Deoxyribonucleoside kinase activity (relative) ([2]; extract of pGEX-2T-TOM-ΔNdCK/dGK transformant, substrate 100 μM, highest specific activity in extract = 100%)	ability to phosphorylate the deoxyribonucleoside (in words) [2]	Deoxyribonucleoside kinase activity (relative) [3, 5]	Deoxyribonucleoside kinase activity (relative) ([4]; extract of pGEX-2T-AT-dCK/dGK transformant, substrate 100 μM, highest specific activity in extract = 100%)	ability to phosphorylate the deoxyribonucleoside (in words) [4]	specific activity corresponding to 100% [3, 5]	substrate conversion (in words) ([3]; pGEX-2T-TOM-dCK/dGKΔC)	Compound
(3.3) mU/mg	100%	able to phosphorylate	(0.32) mU/mg	100%	able to phosphorylate	74%	91%	able to phosphorylate			Nc1nc2c(ncn2[C@H]2C[C@H](O)[C@@H](CO)O2)c(=O)[nH]1 [dGuo, deoxyguanosine]
		not			not	100%		not	(0.27) mU/mg	fastest converted substrate	Cc1cn([C@H]2C[C@H](O)[C@@H](CO)O2)c(=O)[nH]c1=O [dThd, thymidine]
